Bridge positions count the residues as written; N and C are the ends. Peptide text beside a SMILES is read from it.
Columns and labels:
[1] = test system: IL-2 mRNA in PHA-L-activated cells; assay: IL-2 gene expression, real-time PCR; assay type: cell-based, human; details: 4 hours, vs control
Description: C. IL-2 gene expression analysis using RT-PCR. […] RT-PCR was carried out using specific primers for indicated gene. The data were normalized to the Ct value of the internal housekeeping gene 18s rRNA and the relative mRNA level in the untreated stimulated group was used as calibrator. Data were expressed as mean+SD of three independent experiments.
Total RNA was extracted from controls or treated cells (2×10^6) frozen at −80° C. RNA-purification was performed according to the manufacturer's instructions for the RNeasy mini and Rnase-Free Dnase Set digestion kits (Qiagen, Hilden, Germany). The quantity and purity of extracted RNA was measured by spectrophotometry (Nanodrop, Peqlab, Erlangen, Germany) and purified RNA was reverse transcribed using the RT^2 First Stand Kit (Qiagen, Hilden, Germany).
RT-PCR reactions were carried out on a BioRad MyiQ (BioRad, Munich, Germany) in a final volume of 25 μL using RT^2 qPCR Primer Assay (for IL-2) and SYBR® Green qPCR Mastermix (both from Qiagen, Hilden, Germany). […] Results were expressed as relative gene expression of IL-2 and were determined by comparative Ct method. […]
To determine whether cyclotides have an impact at the gene expression level of the, il-2 gene expression (as control we used 18s rRNA) in PBMC cells was investigated by quantitative real-time PCR (FIG. 12C).

[2] = test system: EAE-induced C57BL/6J mice; assay: EAE in C57BL/6J mice treated with T20K, clinical score; assay type: in vivo, mouse
Description: FIG. 19. Effect on clinical EAE score. After induction of EAE, mice treated with T20K and naïve mice were scored every second day, starting at day 10.
Mice (n=10/group) were treated on day (−7), 0, 7 with 200 μg/100 μL/mouse T20K solubilized in sterile PBS intraperitoneally (i.p.), as indicated in the figure. On day 0 they were immunized subcutaneously with myelin oligodendrocyte glycoprotein (MOG35-55, 1 mg/mL) and complete Freud's adjuvant (CFA, 10 mg/mL) mixed at equal parts. Therefore 70 μL were injected into the left and right flank. Additionally mice received 100 μL pertussis toxin (2 μg/mL) i.p. on day 0 and again on day 2. Beginning at day 10 mice were scored every second day. Weight was also measured at day (−7), 0, 7 and on the same day during scoring.

[3] = test system: spleenocytes restimulated with MOG35-55; assay: Cytokine release of spleenocytes from treated EAE mice, ELISA; assay type: cell-based, mouse
Description: FIG. 21. Effect on cytokine release of ex vivo isolated PBMC at day 3. Spleenocytes of sacrificed mice were isolated and restimulated with MOG35-55 (30 μg/mL) for three days or left untreated. Supernatants of these cells were used for analyzing cytokine release in ELISAs. In (A) interleukin 2 release was highest in splenic T-cells isolated from naïve mouse group that were restimulated with MOG, correlating with disease course. […] There was hardly any cytokine IL4 detectable (E), opposing a TH2 immune response, which was expected.
Spleens of sacrificed mice were taken and transferred into a 6 cm Petri Dish with 5 mL sterile PBS. To receive a spleenocyte suspension, spleens were meshed and filtered through 70 μm nylon sieve. Cells were centrifuged at 1200 rpm for 5 minutes and resuspended in RPMI 1640 media supplemented with 10% fetal calf serum (FCS), 2 mM L-glutamine, penicillin (100 U/mL), and streptomycin (100 μg/mL). Spleenocytes were cultivated at a concentration of 3×10^6/mL in a 48-well flat-bottom plate (500 μL/well). Cells were stimulated with 30 μg/mL MOG35-55 or left untreated and incubated at 37° C. for three days. Supernatants and cells were taken stored at −20° C. until further experiments. […] After 12 hours MOG or T20K was added to appropriate wells. Supernatants were stored after 24 hours and after 48 hours at −20° C.
Supernatants of stimulated spleenocytes were analyzed for their IL2, IL17, INFγ, IL4 and IL22 cytokine release using anti-mouse antibodies for ELISA from eBioscience according to the manufacturer's instructions. The color reaction was evaluated at an optical density of 450 nm by the microplate reader Synergy H4 (BioTek).

NFATc1 in human T-cells = assay: Western blot for NFATc1; assay type: cell-based; details: CsA 5 μg/mL, T20K 4 μM; compared to V10K, PHA-L, PMA/Ionomycin
Description: (§1) FIG. 23. Effect of cyclotides on protein expression of NFAT1c. […] But instead of stimulating with PHA-L and PMA/ionomycin, one part of the cells was stimulated with PHA-L (10 μg/mL) and the other with PMA (50 ng/mL)/ionomycin (500 ng/mL) over night. […] Splenic T-cells isolated from naïve mouse group were stimulated as described above.
(§2) Human T-cells provided by CCRI from A. Dohnal, PhD were stimulated according to the protocol for IL2 release described above. Stimulated cells were resuspended in TBS and mixed at equal parts with sample buffer and heated for five minutes at 95° C. A sodium dodecyl sulfate polyacrylamide gel was prepared to separate the proteins achieved from the lysed T-cells. After electrophoresis proteins were transferred from the gel to a membrane. After blocking the membrane with BSA 3% in TBST over night at 4° C., the first antibody mouse anti-NFATc1 was incubated for 2 hours at room temperature. After five times washing with TBST 0.1% Tween, the membrane was incubated with the second antibody anit-mouse IgG HRP for one hour at room temperature. The membrane was dried and treated with West Pico or West Femto Super Signal Solution according to the manufactures protocol to evaluate the chemo-luminescence signal.

[4] = test system: NFATc1 in splenic T-cells of naive mouse group; assay: Western blot for NFATc1; assay type: cell-based; details: compared to V10K and MOG
Description: as §1, §2

**Q.** CC(C)C[C@@H]1NC(=O)CNC(=O)[C@H](CC(N)=O)NC(=O)[C@H](CCCNC(=N)N)NC(=O)[C@H]([C@@H](C)O)NC(=O)[C@@H]2CSSC[C@@H]3NC(=O)[C@H]([C@@H](C)O)NC(=O)CNC(=O)CNC(=O)[C@H](C(C)C)NC(=O)[C@@H]4CSSC[C@H](NC(=O)[C@H](CCCCN)NC(=O)[C@H](CSSC[C@H](NC(=O)[C@H](C(C)C)NC(=O)[C@@H]5CCCN5C1=O)C(=O)NCC(=O)N[C@@H](CCC(=O)O)C(=O)N[C@@H]([C@@H](C)O)C(=O)N4)NC(=O)CNC(=O)[C@@H]1CCCN1C(=O)[C@H]([C@@H](C)O)NC(=O)[C@H](CC(N)=O)NC3=O)C(=O)N[C@@H](CO)C(=O)N[C@@H](Cc1c[nH]c3ccccc13)C(=O)N1CCC[C@H]1C(=O)N[C@@H](C(C)C)C(=O)N2 [Kalata T20K] (cyclo(CGETCVGGTCNTPGCKCSWPVCTRNGLPV); disulfide 1-15, 5-17, 10-22 (inferred); ring closure inferred) was tested. Which “level of IL-2 mRNA” value [1] did it give?
**A.** clearly decreases the level of IL-2 mRNA

**Q.** What about the “clinical EAE score / symptoms” value ([2]; T20K 200 μg/100 μL/mouse i.p. on day -7, 0 or 7, vs naive group) of the same compound?
**A.** delayed and minor symptoms of EAE

**Q.** And the “prophylactic effect on clinical EAE score” value ([2]; mice treated seven days before EAE induction, Dunnett's test)?
**A.** demonstrate significantly the prophylactic effect

**Q.** And the “IL2 release of spleenocytes from mice treated at day 7” value ([3]; T20K (7), after MOG stimulation, vs naive group)?
**A.** IL2 release was lower than in naïve group

**Q.** What about the “IL17, IL22 and INFγ release of spleenocytes from pre-treated mice” value ([3]; T20K (-7, 0)) of the same compound?
**A.** inhibitory effect could also be demonstrated towards the cytokines IL17, IL22 and INFγ in T-cells of T20K (−7, 0) treated mice, although not significantly

**Q.** And the “IL2 production of spleenocytes from pre-treated mice” value ([3]; T20K day -7 or 0, MOG35-55 30 μg/mL, three days)?
**A.** significant inhibition of the IL2 production

**Q.** And the “NFATc1 signal in human T-cells” value (NFATc1 in human T-cells)?
**A.** reduced signal of NFATc1

**Q.** And the “NFATc1 signal in mouse splenic T-cells” value [4]?
**A.** reduced NFATc1 signal

Reference: US10357537B2, “Cyclotides as immunosuppressive agents” (priority 2011, dated 2019)
